# Results as given in US20210355104A1, “ADENOSINE RECEPTOR BINDING COMPOUNDS” (Nikang Therapeuticsm Inc., priority 2018, published 2021).
# Where “and” joins values, the source holds several entries; their conditions need not be identical. Equal values may be shown once.
# Molecular target: Adenosine A2A receptor (Homo sapiens, UniProt P29274)
# Test: cAMP assay in 293A cells stably expressing the adenosine A2A receptor (CGS21680 stimulation, HTRF)
# Format: cell-based
# Set-up: expressed in transfected cells; host or cells: 293A cells (Invitrogen, Cat# R705-07) infected with A2A-expressing lentivirus (custom packaged by Biosettia), puromycin selected
# Conditions: 293A cells stably expressing A2A receptor; 0.1% BSA; 1 uM CGS21680 stimulation; replicate values separated by /; read-out: cAMP (nM) 0.1% BSA, 1 uM CGS
# Protocol: A 293A cell line (Invitrogen, Cat# R705-07) stably expressing the adenosine A2A receptor was generated in house. Briefly, 293A cells were seeded in 6-well plate and infected with A2A expressing lentivirus (custom packaged by Biosettia) and selected with puromycin (1 ug/ml). Cells survived selection were confirmed for A2A expression by RT-qPCR (RT Reagent: High-Capacity cDNA Reverse Transcription Kit, Applied Biosystems/Thermo Fisher Cat# 4368814, qPCR reagent: SYBR™ Green Master Mix, Applied Biosystems/Thermo Fisher Cat# 4309155). The cells were maintained in DMEM/F12 medium containing 10% FBS, 100 units/ml Penicillin, 100 μg/ml Streptomycin, and 1 μg/ml puromycin at 37° C., 5% CO2. 293A-A2AR cells were harvested on the day of assay and resuspended at 0.6 million cells/ml in DMEM/F12 with 0.1% BSA and 30 U/ml denosine deaminase(Roche, Cat #: 10102121001). Serial dilutions of compounds were prepared in DMEM/F12 with 0.1% BSA to a DMSO concentration of 0.6%. After 4 μl of compound dilutions were added, 4 μl suspended cells were dispensed into low-volume white 384-well plates (Greiner Bio-One). […] The assay plate was then incubated at room temperature for 30 min. 3 μl of d2 conjugated cAMP and 3 μl cryptate conjugated anti-cAMP antibody were then added. D2 conjugated cAMP and cryptate conjugated anti-cAMP antibody (Cisbio, Cat #: 62AM6PEC) were both prepared in cell lysis buffer according to the manufacturer's instruction. After 1 h incubation at room temperature, plates were read in CIARIOstar plate reader (BMG Labtech) using the HTRF detection mode.
# Chain of Adenosine A2A receptor (P29274 whole entry): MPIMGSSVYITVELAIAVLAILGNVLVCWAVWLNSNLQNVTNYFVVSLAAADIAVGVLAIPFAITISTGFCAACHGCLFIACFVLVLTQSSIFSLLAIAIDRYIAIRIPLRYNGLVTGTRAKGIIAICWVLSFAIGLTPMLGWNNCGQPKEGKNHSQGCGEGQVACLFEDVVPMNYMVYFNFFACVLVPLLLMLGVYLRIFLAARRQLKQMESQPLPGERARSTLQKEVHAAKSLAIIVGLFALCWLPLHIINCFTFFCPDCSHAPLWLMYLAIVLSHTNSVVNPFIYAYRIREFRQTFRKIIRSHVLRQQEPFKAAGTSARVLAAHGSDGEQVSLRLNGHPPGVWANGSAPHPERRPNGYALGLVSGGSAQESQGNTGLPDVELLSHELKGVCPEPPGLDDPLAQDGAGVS
row,SMILES,IC50
1,"Cc1cc(-c2c(OCc3nccc4c3nnn4C)nc(N)nc2-c2ccc(F)cc2)cc(C(F)F)n1 [Example 416, 5-(2-(difluoromethyl)-6-methylpyridin-4-yl)-4-(4-fluorophenyl)-6-((1-methyl-1H-[1,2,3]triazolo[4,5-c]pyridin-4-yl)methoxy)pyrimidin-2-amine]",498 nM and 615 nM
2,"Cc1cc(-c2c(OCc3nc(OCC(=O)O)cc4ccccc34)nc(N)nc2-c2ccc(F)cc2)cc(C(F)F)n1 [Example 405, 2-((1-(((2-amino-5-(2-(difluoromethyl)-6-methylpyridin-4-yl)-6-(4-fluorophenyl)pyrimidin-4-yl)oxy)methyl)isoquinolin-3-yl)oxy)acetic acid]",619 nM
3,"Cc1cc(-c2c(OCc3cc(C(C)(C)O)cc(-c4nnnn4C)n3)nc(N)nc2-c2ccc(F)cc2)cc(C(F)F)n1 [Example 426, 2-(2-(((2-amino-5-(2-(difluoromethyl)-6-methylpyridin-4-yl)-6-(4-fluorophenyl)pyrimidin-4-yl)oxy)methyl)-6-(1-methyl-1H-tetrazol-5-yl)pyridin-4-yl)propan-2-ol]",7980 nM and 6190 nM
4,"Cc1cc(-c2c(OCc3cccc(NS(C)(=O)=O)n3)nc(N)nc2-c2ccc(F)cc2)cc(C(F)F)n1 [Example 411, N-(6-(((2-amino-5-(2-(difluoromethyl)-6-methylpyridin-4-yl)-6-(4-fluorophenyl)pyrimidin-4-yl)oxy)methyl)pyridin-2-yl)methanesulfonamide]",3190 nM
5,"Cc1cc(-c2c(OCc3cccc(CNCC(=O)O)n3)nc(N)nc2-c2ccc(F)cc2)cc(C(F)F)n1 [Example 414, ((6-(((2-amino-5-(2-(difluoromethyl)-6-methylpyridin-4-yl)-6-(4-fluorophenyl)pyrimidin-4-yl)oxy)methyl)pyridin-2-yl)methyl)glycine]",2050 nM
6,"Cc1cc(-c2c(OCc3cc(-c4nn[nH]n4)cc(C(C)(C)O)n3)nc(N)nc2-c2ccc(F)cc2)cc(C(F)F)n1 [Example 441, 2-(6-(((2-amino-5-(2-(difluoromethyl)-6-methylpyridin-4-yl)-6-(4-fluorophenyl)pyrimidin-4-yl)oxy)methyl)-4-(2H-tetrazol-5-yl)pyridin-2-yl)propan-2-ol]",> 3000 nM

# Same assay, conditions: 293A-A2AR cells, 0.1% BSA, 1 uM CGS; read-out: cAMP (nM) 0.1% BSA, 1 uM CGS
row,SMILES,IC50
1,"Cc1cc(-c2c(OCCn3ccc(C(=O)O)cc3=O)nc(N)nc2-c2ccc(F)cc2)cc(C(F)F)n1 [Example 334, 1-(2-((2-amino-5-(2-(difluoromethyl)-6-methylpyridin-4-yl)-6-(4-fluorophenyl)pyrimidin-4-yl)oxy)ethyl)-2-oxo-1,2-dihydropyridine-4-carboxylic acid]",3170 nM
2,"CCc1c(COc2nc(N)nc(-c3ccc(F)cc3)c2-c2cc(C)nc(C(F)F)c2)nnn1C[C@H](O)CO [Example 317, (S)-3-(4-(((2-amino-5-(2-(difluoromethyl)-6-methylpyridin-4-yl)-6-(4-fluorophenyl)pyrimidin-4-yl)oxy)methyl)-5-ethyl-1H-1,2,3-triazol-1-yl)propane-1,2-diol]",1430 nM
3,"Cc1cc(-c2c(OCc3cccc(N(C)CC(=O)O)n3)nc(N)nc2-c2ccc(F)cc2)cc(C(F)F)n1 [Example 327, N-(6-(((2-amino-5-(2-(difluoromethyl)-6-methylpyridin-4-yl)-6-(4-fluorophenyl)pyrimidin-4-yl)oxy)methyl)pyridin-2-yl)-N-methylglycine]",4390 nM
4,"Cc1cc(-c2c(NCc3nc4ccccc4n3C)nc(N)nc2-c2ccc(F)cc2)cc(C(F)F)n1 [Example 351, 5-(2-(difluoromethyl)-6-methylpyridin-4-yl)-6-(4-fluorophenyl)-N^4-((1-methyl-1H-benzo[d]imidazol-2-yl)methyl)pyrimidine-2,4-diamine]",13100 nM
5,"Cc1cc(-c2c(OCc3cc(C(C)(C)C#N)ccn3)nc(N)nc2-c2cccc(C#N)c2C)cc(C(F)F)n1 [Example 261, 3-(2-amino-6-((4-(2-cyanopropan-2-yl)pyridin-2-yl)methoxy)-5-(2-(difluoromethyl)-6-methylpyridin-4-yl)pyrimidin-4-yl)-2-methylbenzonitrile]",2190 nM
6,Cc1cc(-c2c(OCc3ccnc(C(C)(C)O)n3)nc(N)nc2-c2ccc(F)cc2)cc(C(F)F)n1 [Example 308],164 nM and 197 nM and 159 nM and 113 nM
7,"Cc1cc(-c2c(OCc3ncc(C(C)(C)O)s3)nc(N)nc2-c2ccc(F)cc2)cc(C(F)F)n1 [Example 371, 2-(2-(((2-amino-5-(2-(difluoromethyl)-6-methylpyridin-4-yl)-6-(4-fluorophenyl)pyrimidin-4-yl)oxy)methyl)thiazol-5-yl)propan-2-ol]",2360 nM
8,"CCc1nnn(CC(=O)O)c1COc1nc(N)nc(-c2ccc(F)cc2)c1-c1cc(C)nc(C(F)F)c1 [Example 233, 2-(5-(((2-amino-5-(2-(difluoromethyl)-6-methylpyridin-4-yl)-6-(4-fluorophenyl)pyrimidin-4-yl)oxy)methyl)-4-ethyl-1H-1,2,3-triazol-1-yl)acetic acid]",16300 nM
9,"CCc1nn(CC(C)(C)C(=O)O)nc1COc1nc(N)nc(-c2ccc(F)cc2)c1-c1cc(C)nc(C(F)F)c1 [Example 300, 3-(4-(((2-amino-5-(2-(difluoromethyl)-6-methylpyridin-4-yl)-6-(4-fluorophenyl)pyrimidin-4-yl)oxy)methyl)-5-ethyl-2H-1,2,3-triazol-2-yl)-2,2-dimethylpropanoic acid]",> 10000 nM
10,"Cc1cc(-c2c(OCc3nnnn3CC(C)(C)O)nc(N)nc2-c2ccc(F)cc2)cc(C(F)F)n1 [Example 292, 1-(5-(((2-amino-5-(2-(difluoromethyl)-6-methylpyridin-4-yl)-6-(4-fluorophenyl)pyrimidin-4-yl)oxy)methyl)-1H-tetrazol-1-yl)-2-methylpropan-2-ol]",708 nM
11,"CCc1c(COc2nc(N)nc(-c3ccc(F)cc3)c2-c2cc(C)nc(C(F)F)c2)nnn1C[C@@H](O)CO [Example 289, (R)-3-(4-(((2-amino-5-(2-(difluoromethyl)-6-methylpyridin-4-yl)-6-(4-fluorophenyl)pyrimidin-4-yl)oxy)methyl)-5-ethyl-1H-1,2,3-triazol-1-yl)propane-1,2-diol]",2090 nM
12,"CCC(C)(C#N)c1cccc(COc2nc(N)nc(-c3ccc(F)cc3)c2-c2cc(C)nc(C(F)F)c2)n1 (stereo not shown) [Example 360, 2-(6-(((2-amino-5-(2-(difluoromethyl)-6-methylpyridin-4-yl)-6-(4-fluorophenyl)pyrimidin-4-yl)oxy)methyl)pyridin-2-yl)-2-methylbutanenitrile]",50 nM and 51 nM and 115 nM
13,"Cc1cc(-c2c(OCc3nc4cc(C(C)(C)O)ccc4n3C)nc(N)nc2-c2ccc(F)cc2)cc(C(F)F)n1 [Example 357, 2-(2-(((2-amino-5-(2-(difluoromethyl)-6-methylpyridin-4-yl)-6-(4-fluorophenyl)pyrimidin-4-yl)oxy)methyl)-1-methyl-1H-benzo[d]imidazol-5-yl)propan-2-ol]",3910 nM and 3930 nM
14,"Cc1cc(-c2c(OCc3cc4ccccc4n3C)nc(N)nc2-c2ccc(F)cc2)cc(C(F)F)n1 [Example 319, 5-(2-(difluoromethyl)-6-methylpyridin-4-yl)-4-(4-fluorophenyl)-6-((1-methyl-1H-indol-2-yl)methoxy)pyrimidin-2-amine]",209 nM and 256 nM
15,"Cc1cc(-c2c(OC[C@H]3CC[C@@H](C(=O)O)CC3)nc(N)nc2-c2ccc(F)cc2)cc(C(F)F)n1 [Example 278, (1,4-cis)-4-(((2-amino-5-(2-(difluoromethyl)-6-methylpyridin-4-yl)-6-(4-fluorophenyl)pyrimidin-4-yl)oxy)methyl)cyclohexane-1-carboxylic acid]",19900 nM
16,"Cc1cc(-c2c(OCc3nnn(CC(C)(C)O)n3)nc(N)nc2-c2ccc(F)cc2)cc(C(F)F)n1 [Example 291, 1-(5-(((2-amino-5-(2-(difluoromethyl)-6-methylpyridin-4-yl)-6-(4-fluorophenyl)pyrimidin-4-yl)oxy)methyl)-2H-tetrazol-2-yl)-2-methylpropan-2-ol]",5490 nM
17,"Cc1cc(-c2c(OCc3nc4ccccn4n3)nc(N)nc2-c2ccc(F)cc2)cc(C(F)F)n1 [Example 341, 4-([1,2,4]triazolo[1,5-a]pyridin-2-ylmethoxy)-5-(2-(difluoromethyl)-6-methylpyridin-4-yl)-6-(4-fluorophenyl)pyrimidin-2-amine]",1400 nM
18,"Cc1cc(-c2c(OCc3ccc4ccccc4n3)nc(N)nc2-c2ccc(F)cc2)cc(C(F)F)n1 [Example 380, 5-(2-(difluoromethyl)-6-methylpyridin-4-yl)-4-(4-fluorophenyl)-6-(quinolin-2-ylmethoxy)pyrimidin-2-amine]",548 nM and 469 nM and 502 nM
19,"Cc1cc(-c2c(OCc3cccc(C(=O)O)n3)nc(N)nc2-c2ccc(F)cc2)cc(C(F)F)n1 [Example 274, 6-(((2-amino-5-(2-(difluoromethyl)-6-methylpyridin-4-yl)-6-(4-fluorophenyl)pyrimidin-4-yl)oxy)methyl)picolinic acid]",3210 nM
